A short description of series [1]: Maturation in 12 different solvents with thermal cycling, XRPD. Type of series: physicochemical. The note with it: slurries cycled between room temperature and 50 °C (4 hours each) for 3 days. The procedure: The resulting slurries were subjected to maturation with thermal cycling between room temperature and 50° C. (4 hours at each condition) for 3 days. Solids were then analysed by XRPD.

The nature of series [2]: Solubility in FaSSGF (Fasted State Simulated Gastric Fluid) at 37 °C. Type of series: physicochemical. Conditions: free base component, average n=2.
Experimental: Preparation of solutions: Solubility tests in FaSSGF were carried out at 37° C. and in water at room temperature for 2 hour and 6 hour timepoints. 50 mg solid was added to 0.5 mL media and incubated on an orbital shaker for 6 hours. (For free base in water 20 mg samples were used). Slurry/solution was sampled at 2 and 6 hours and aliquots were filtered through 0.45 micron PTFE filters. The filtrate was diluted 500 fold with the appropriate (same) media and injected on to UPLC.
(For free base in water ≥40 mg·mL^−1). […] Results were calculated based on a standard calibration curve of appropriate free base. Values quoted are for the free base component of each salt and are average of two (n=2) determinations.
The nature of series [3]: Long-term (up to 25 days) psilocin stability in citric acid solution and sodium citrate buffer. Conditions: 0.1 M. Type of series: physicochemical. The protocol:
The long-term stability (up to 25 days) of psilocin in a citric acid solution (0.1 M, pH 1.60) and a sodium citrate buffer (0.1 M, pH 6.01) at 4C and 23° C. was assessed.
(§1) Preparation of 0.1 M sodium citrate buffer (pH 6.01): 2.427 g of sodium citrate dihydrate and 0.336 g of citric acid were dissolved in 80 ml of DI water. The pH was adjusted to 6.0 using a 1 M NaOH solution. The final volume was adjusted to 100 ml.
Test solutions: Psilocin (1 mg/ml), was mixed with (i) sodium citrate buffer (0.1 M, pH 6.01) and (ii) citric acid solution (0.1 M, pH 1.60) in 1:1 v/v. The samples were stored at 4° C. and 23° C., and aliquots were sampled at designated timepoints (days 0, 7, 17, and 25).

A short description of series [4]: Psilocin stability in 0.1 M sodium citrate buffer at 4, 23 and 40 °C. Type of series: physicochemical. The protocol:
as §1

A short description of series [5]: Plasma pharmacokinetics and bioavailability in rats, oral gavage and intravenous (bolus). The note with it: for Tmax: rat plasma, label = analyte, IAD = immediately after dosing.
Series [6] can be described thus: Psilocin stability in 0.1 M acid solutions with or without metal ions, 40 °C. Type of series: physicochemical. The note with it: up to 24 h. From the text:
Ascorbic acid (AsA), acetic acid (AcA), tartaric acid (TA), fumaric acid (FA), citric acid (CA), malic acid (MA), benzenesulfonic acid (BSA), stearic acid (SA), sodium citrate dihydrate, monosodium phosphate hydrate, disodium phosphate were purchased from Sigma Aldrich. Aluminum (III) chloride (AlCl3) and iron (III) chloride (FeCl3) were purchased from Sigma Aldrich. Antioxidants, i.e., ethylenediaminetetraacetic acid (EDTA), ascorbic acid (AsA), L-cysteine (Cys), sodium metabisulfite (NamBiSO3) and propyl gallate (PG) were purchased from Sigma Aldrich. Hydroxypropyl-β-cyclodextrin (CAVASOL® W7 HP, CAVITRON® W7 HP7) and methyl-β-cyclodextrin (CAVASOL® W7 M) were provided by DuPont.
The following chromatographic conditions were used:
Diluent. The diluent used in the below studies was prepared as follows: 100 mL of acetonitrile (ACN) was mixed with 800 mL of water and 100 mL of 1.0 M citric acid and mixed well to prepare 1 L of diluent.
The stability of psilocin in 0.1 M solutions of various acids was tested.
Test solutions: To prepare the test solutions, 0.1 M solutions of AsA, AcA, TA, FA, CA, MA, BSA, and SA were prepared in DI water.

Series [7] can be described thus: Psilocin stability with cyclodextrin complexes, 40 °C. Conditions: 1% w/w cyclodextrin, up to 24 h.
A short description of series [8]: Psilocin stability in dilute citric acid solution at 4, 23 and 40 °C.
Series [9] is described as follows: Psilocin stability with antioxidants against metal induced degradation, 40 °C. Conditions: 20 μM antioxidant, up to 24 h.
Series [10] in a line: Psilocin stability comparison between sodium citrate and phosphate buffer, 40 °C. Type of series: physicochemical. Conditions: 0.1 M, 24 h. The procedure:
The effect of buffer type and pH on the stability of psilocin was assessed.
as §1
Preparation of 0.1 M phosphate buffer (pH 6.0 and pH 7.5): Monosodium phosphate (0.339 g, 0.002 moles) and disodium phosphate (2.021 g, 0.014 moles) were dissolved in 80 ml water and the pH was adjusted as necessary using sodium hydroxide or phosphoric acid. The volume was adjusted to 100 ml using water.
Test solutions: Psilocin (1 mg/ml) was mixed with (i) 0.1 M sodium citrate buffer (pH 6.01), (ii) 0.1 M phosphate buffer (pH 6.0), and (iii) 0.1 M phosphate buffer (pH 7.5) in a 1:1 v/v ratio.

Series [11] can be described thus: Brain tissue concentrations in rats after intravenous dosing.
Series [12] is described as follows: Observation of isolated freeze dried solid. Format: physicochemical. The note with it: freeze dried citrate salt. The procedure: This gave an oil. Additional water was added until a solution was obtained. […] The obtained citrate salt was amorphous as shown by X-ray powder diffraction (XRPD) pattern in FIG. 37A.
Setting [13] is: Group 3, IV, psilocybin dosed 2.8 mg/kg.

Molecules are shown by their SMILES. Entries after “also recorded” stand apart in the source; their conditions may differ. Where a name gives a salt, the structure may show the parent alone. Marks after values point to notes of the source that are not given here. A value given as a limit tells only on which side of the number the result lay.

`CN(C)CCc1c[nH]c2cccc(O)c12` [Compound I-7c, Hemi-Fumarate Salt of 3-(2-(dimethylamino)ethyl)-1H-indol-4-ol]: the “crystalline form by XRPD after maturation in 12 different solvents” value (“crystalline form … in 12 different solvents” below) in series [1] is listed as “complex polymorphism with multiple crystalline patterns obtained”. Further, the “Solubility FaSSGF 6 hours” value in [2] was ≥ 52.25* mg/mL.

As for `CN(C)CCc1c[nH]c2cccc(O)c12` [Compound I-7b, tartrate salt of 3-(2-(dimethylamino)ethyl)-1H-indol-4-ol], in [1], the “crystalline form … in 12 different solvents” value is recorded as “retained their initial crystalline form”.

For `CN(C)CCc1c[nH]c2cccc(O)c12` [Compound I-7j, Benzoate Salt of 3-(2-(dimethylamino)ethyl)-1H-indol-4-ol], in series [1], the “crystalline form … in 12 different solvents” value was “retained their initial crystalline form; also recorded: the same pattern 1 by XRPD was observed”. Also, the “Solubility FaSSGF 6 hours” value in series [2] is listed as 9.79 mg/mL.

Turning to `CN(C)CCc1c[nH]c2cccc(O)c12` [Compound I-7, 3-(2-(dimethylamino)ethyl)-1H-indol-4-ol], the “long-term stability in citric acid solution” value in [3] (pH 1.60, 4 °C and 23 °C) is reported as “only minimal degradation”. In series [3] (pH 6.01, 4 °C), the “long-term stability in sodium citrate buffer, cold storage” value is listed as “remained stable for up to 17 days”. The “long-term stability in sodium citrate buffer, room temperature” value in [3] (pH 6.01, 23 °C) is “degradation of psilocin began within a week”. In series [4] (0.1 M sodium citrate buffer pH 6.01), the “effect of metal salts (Fe3+ and Al3+) in citrate buffer” value was “no detrimental effects”. Also, in series [4] (4, 23 and 40 °C), the “solution stability in non-citrate buffered solutions with Fe3+ and Al3+” value was “significant psilocin degradation”; the “solution stability without sodium citrate buffer” value is “nearly all psilocin being degraded by the 18 hour time point”. The “degradation of psilocin in 0.1 M sodium citrate buffer” value in series [4] (40 °C, up to 24 h) is recorded as 10-15%. In [4] (pH 6.01, 4 °C and room temperature, up to 24 h), the “solution stability in 0.1 M sodium citrate buffer” value is “greatly stabilized psilocin”. The Tmax result in series [5] (Group 1, IV, psilocin + psilocin-d10 1 + 1 mg/kg) is reported as “IAD”. In addition, the Tmax result in series [5] (setting [13]) is “IAD”. The “onset, duration and variability of plasma exposure versus oral psilocybin” value in series [5] (rats, oral) was “a faster onset, a shorter duration of effect, and less variability in drug exposure than oral psilocybin”. Also, the “solution stability in 0.1 M acid solutions (solution-phase salts), with or without metal salts” value in [6] (all tested acids) is listed as “excellent stability”. In [6], the “solution stability of psilocin without acid” value is “nearly all psilocin being degraded within 24 hours”; the “solution stability without acid in presence of Fe3+ and Al3+ metal ions” value is reported as “significant psilocin degradation”. Moreover, in series [7], the “stability with cyclodextrins against high temperature or metal induced degradation” value is recorded as “cyclodextrins did not impart stability”. Also, in series [8] (4, 23 and 40 °C), the “solution stability without citric acid” value was “nearly all psilocin being degraded by the 18 hour time point”; the “solution stability without citric acid in presence of Fe3+ and Al3+” value is “significant psilocin degradation”. In addition, the “solution stability with small quantities of citric acid (pH 3.2)” value in [8] (4 °C and room temperature (23 °C), up to 24 h) was “greatly enhanced the stability of psilocin”. The “psilocin stabilization (% psilocin remaining) with small quantities of citric acid” value in series [8] (40 °C, 24 hour time point) came out at 30%. In addition, the “stability against metal salts with antioxidants (EDTA, ascorbic acid, L-cysteine, sodium metabisulfite, propyl gallate)” value in series [9] is “none of the antioxidants tested were able to provide stability”. Moreover, the “stability in phosphate buffer pH 6.0 versus pH 7.5” value in [10] is “better stability than at pH 7.5”.

Turning to `CN(C)CCc1c[nH]c2cccc(OP(=O)(O)O)c12` [psilocybin, Psilocybin], the “brain concentrations of psilocybin versus plasma” value in series [11] is on record as “brain concentrations of psilocybin are low”. Also, in [5] (male, Sprague Dawley, rat, plasma, po, 14 mg/kg), the bioavailability is under 0.1%. The Tmax entry in [5] (setting [13]) is recorded as “IAD”.

Take `CN(C)CCc1c[nH]c2cccc(O)c12` [Compound I-7e, Citrate Salt of 3-(2-(dimethylamino)ethyl)-1H-indol-4-ol]: in series [12], the “behaviour of isolated amorphous solid” value is “hygroscopic and rapidly became sticky”.

In the case of `[2H]C([2H])([2H])N(C([2H])([2H])[2H])C([2H])([2H])C([2H])([2H])c1c[nH]c2cccc(O)c12` [Compound I-3j, Benzoate Salt of 3-(2-(bis(methyl-d3)amino)ethyl-1,1,2,2-d4)-1H-indol-4-ol], the “crystalline form … in 12 different solvents” value in series [1] is recorded as “retained their initial crystalline form (pattern 1)”. Also, in series [2], the “Solubility FaSSGF 6 hours” value was 12.79 mg/mL.

As for `CN(C)CCc1c[nH]c2cccc(O)c12` [Compound I-7a, benzenesulfonate salt of 3-(2-(dimethylamino)ethyl)-1H-indol-4-ol], in [1], the “crystalline form … in 12 different solvents” value is recorded as “retained their initial crystalline form (pattern 1)”.

The values above are taken from patent US20250213527A1, “FORMULATIONS OF PSILOCYBIN ANALOGS AND METHODS OF USE” (priority 2021, published 2025).
